The text below walks through data of US12084473B2, “β-D-2′-deoxy-2′-α-fluoro-2′-β-C-substituted-2-modified-N6-substituted purine nucleotides for HCV treatment” (Atea Pharmaceuticals, Inc., priority 2015, dated 2024).

Like-named read-outs stand apart in the source and are kept apart here. Bounds are passed on as bounds.

One series relates to iPS Cardiomyocytes. As to the kind of experiment: iPS Cardiomyocyte Assay. It counts as cell-based, human. Conditions: 3 days, XTT. The method, then: iPS Cardiomyocytes (Cellular Dynamics) were seeded in microliter plates at 1.5×10^4 cells per well. After 48-hr incubation, cells were washed and maintenance medium containing serially diluted TA was added in triplicate. After incubating for an additional 3 days, cell viability was measured by staining with XTT and CC50 values were calculated.

A further series has as its system Huh-7 luc/neo ET cells. As to the kind of experiment: Cytotoxicity by XTT staining in replicon cells. The essentials:
(§1)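 Cells cultured 24 h, then exposed 72 h to six half-log dilutions (top 100.0 or 1.0 μM) in triplicate, with interferon-alpha2b reference and medium-only controls. Viability read by XTT staining on a parallel plate; TC50 derived from concentration-response.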
(Tetrazolium assays rely on reduction of a dye to a coloured formazan, in cell work by metabolically active cells.)

Series [1] is described as follows: Cytotoxicity by XTT staining in replicon cells. Particulars: human. The essentials: as §1
The test system of series [2] is human bone marrow progenitor cells. Nature of the series: Human Bone Marrow Progenitor Cell Assay. It counts as cell-based. Particulars: 14-day incubations, colony counts. Here is the method:
Fresh human bone marrow progenitor cells (Invitrogen) suspended in either BFU-E or GM-CSF-specific culture medium were added, at 10^5 cells/well, to triplicate serial dilutions of TA in 6-well plates. After 14-day incubations, colony counts were used to determine CC50 values. BFU-E colonies were confirmed using the benzidene technique.

Another series deals with T1, human DNA polymerase γ (Homo sapiens, UniProt P54098).
T1 construct: purchased CHIMERx
T1 sequence (P54098 1-1239): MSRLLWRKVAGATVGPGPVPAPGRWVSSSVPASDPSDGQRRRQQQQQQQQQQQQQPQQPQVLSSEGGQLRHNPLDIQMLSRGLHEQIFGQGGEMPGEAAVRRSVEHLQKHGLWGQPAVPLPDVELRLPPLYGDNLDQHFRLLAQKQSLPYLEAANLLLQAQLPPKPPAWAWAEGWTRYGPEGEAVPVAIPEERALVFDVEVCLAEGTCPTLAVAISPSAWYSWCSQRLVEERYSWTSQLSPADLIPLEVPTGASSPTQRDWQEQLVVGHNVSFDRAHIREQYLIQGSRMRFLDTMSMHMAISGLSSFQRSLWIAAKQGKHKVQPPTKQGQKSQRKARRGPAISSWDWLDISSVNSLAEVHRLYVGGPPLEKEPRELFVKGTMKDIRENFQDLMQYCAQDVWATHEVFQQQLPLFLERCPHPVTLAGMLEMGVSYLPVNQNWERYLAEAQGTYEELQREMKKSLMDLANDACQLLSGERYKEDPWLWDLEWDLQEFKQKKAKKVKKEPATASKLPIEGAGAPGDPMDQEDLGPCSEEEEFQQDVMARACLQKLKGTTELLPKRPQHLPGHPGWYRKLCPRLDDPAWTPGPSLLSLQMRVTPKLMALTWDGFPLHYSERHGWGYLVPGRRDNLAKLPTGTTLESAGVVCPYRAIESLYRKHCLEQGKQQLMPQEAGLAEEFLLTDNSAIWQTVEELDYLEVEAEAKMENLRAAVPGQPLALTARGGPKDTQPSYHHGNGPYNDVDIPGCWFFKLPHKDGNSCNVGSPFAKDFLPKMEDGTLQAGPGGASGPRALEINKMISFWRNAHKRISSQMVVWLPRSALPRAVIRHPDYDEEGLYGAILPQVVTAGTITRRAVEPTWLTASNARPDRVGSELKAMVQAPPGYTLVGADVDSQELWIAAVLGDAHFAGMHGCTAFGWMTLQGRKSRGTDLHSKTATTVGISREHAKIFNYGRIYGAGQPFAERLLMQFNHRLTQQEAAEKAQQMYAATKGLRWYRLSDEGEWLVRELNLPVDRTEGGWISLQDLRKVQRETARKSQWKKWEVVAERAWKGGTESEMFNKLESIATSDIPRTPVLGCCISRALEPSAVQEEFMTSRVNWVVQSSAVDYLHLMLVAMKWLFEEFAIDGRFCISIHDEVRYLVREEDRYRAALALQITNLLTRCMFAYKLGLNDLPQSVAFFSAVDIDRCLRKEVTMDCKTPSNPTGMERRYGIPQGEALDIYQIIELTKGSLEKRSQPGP
Nature of the series: Human DNA Polymerase Assays. Format: biochemical. Particulars: at concentrations up to 100 μM. Here is the method: Inhibition of human DNA polymerases α, β and γ (CHIMERx) was determined in triplicate in reaction mixtures of serially diluted TA, 0.05 mM dCTP, dTTP, and dATP, 10 μCi [^32P]-α-dGTP (800 Ci/mmol), 20 μg activated calf thymus DNA and additional reagents specific for each polymerase.

[3] abbreviates: read-out: HCV Replicon CC50, XTT, 72 hours.

As for `CNc1nc(N)nc2c1ncn2[C@@H]1OC(CO[P@@](=O)(N[C@@H](C)C(=O)OC(C)C)Oc2ccccc2)[C@@H](O)[C@@]1(C)F` (stereo partly drawn) [Compound 5-2], the “cytotoxicity against iPS cardiomyocytes in vitro” value in the series with iPS Cardiomyocytes is reported as “no cytotoxicity”. In the series with Huh-7 luc/neo ET cells, the TC50 entry was “greater than one hundred”. In series [1], this molecule gave a CC50 at 72 h of over 100 µM. Moreover, the “cytotoxicity against bone marrow stem cells in vitro” value in series [2] is recorded as “no cytotoxicity”.

For `CC(C)OC(=O)[C@H](C)N[P@](=O)(OCC1O[C@@H](n2cnc3c(N(C)C)nc(N)nc32)[C@](C)(F)[C@@H]1O)Oc1ccccc1` (stereo partly drawn) [Compound 25, isopropyl ((((S)-(2R,3R,4R,5R)-5-(2-amino-6-(dimethylamino)-9H-purin-9-yl)-4-fluoro-3-hydroxy-4-methyltetrahydrofuran-2-yl)methoxy)-phenoxy-phosphoryl)-L-alaninate], in the series with iPS Cardiomyocytes, the “cytotoxicity against iPS cardiomyocytes in vitro” value is “no cytotoxicity”. Further, the CC50 is over 100 µM in the series on Huh-7 luc/neo ET cells (setting [3]) and over 100 µM in the series on Huh-7 luc/neo ET cells (read-out: TC50, FIG. 3 legend). In series [1], this molecule returned a CC50 at 72 h of over 100 µM. Besides, the “inhibition of human DNA polymerase γ” value on human DNA polymerase γ was “No inhibition”. Also, the “cytotoxicity against bone marrow stem cells in vitro” value in series [2] is on record as “no cytotoxicity”.

On to `CC(C)OC(=O)[C@H](C)N[P@](=O)(OCC1O[C@@H](n2cnc3c(N(C)C4CC4)nc(N)nc32)[C@](C)(F)[C@@H]1O)Oc1ccccc1` (stereo partly drawn) [Compound 27, isopropyl ((((S)-(2R,3R,4R,5R)-5-(2-amino-6-(methylcyclopropanamino)-9H-purin-9-yl)-4-fluoro-3-hydroxy-4-methyltetrahydrofuran-2-yl)methoxy)-phenoxy-phosphoryl)-L-alaninate], for which the “cytotoxicity against iPS cardiomyocytes in vitro” value in the series with iPS Cardiomyocytes is “no cytotoxicity”. The CC50 in the series on Huh-7 luc/neo ET cells (setting [3]) is over 100 µM. Moreover, the CC50 at 72 h in series [1] is over 100 µM. Moreover, the “inhibition of human DNA polymerase γ” value against human DNA polymerase γ is on record as “No inhibition”. The “cytotoxicity against bone marrow stem cells in vitro” value in series [2] is on record as “no cytotoxicity”.
